According to ChEMBL document CHEMBL1177736, “Isopropylidene substitution increases activity and selectivity of biphenylmethylene 4-pyridine type CYP17 inhibitors” (J Med Chem, 2010):

Tests used:
[1] = molecular target: T1, Cytochrome P450 11B1, mitochondrial (Homo sapiens, UniProt P15538); experiment: Inhibition of human CYP11B1 expressed in hamster V79MZh cells; assay type: cell-based
T1 sequence (P15538 whole entry): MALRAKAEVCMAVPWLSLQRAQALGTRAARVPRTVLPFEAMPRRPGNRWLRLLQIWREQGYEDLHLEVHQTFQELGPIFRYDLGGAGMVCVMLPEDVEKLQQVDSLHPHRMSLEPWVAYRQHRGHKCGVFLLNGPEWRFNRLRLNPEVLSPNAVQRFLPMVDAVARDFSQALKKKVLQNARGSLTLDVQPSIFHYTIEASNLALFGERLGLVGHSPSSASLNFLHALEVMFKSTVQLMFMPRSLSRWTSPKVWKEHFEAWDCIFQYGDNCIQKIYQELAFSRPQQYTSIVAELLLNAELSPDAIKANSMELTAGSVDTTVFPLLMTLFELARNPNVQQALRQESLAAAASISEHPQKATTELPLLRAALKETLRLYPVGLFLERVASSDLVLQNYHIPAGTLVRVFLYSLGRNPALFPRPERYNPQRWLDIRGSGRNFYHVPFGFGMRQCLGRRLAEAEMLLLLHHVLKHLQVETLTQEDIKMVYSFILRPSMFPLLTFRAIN

[2] = molecular target: T2, Steroid 17-alpha-hydroxylase/17,20 lyase (Homo sapiens, UniProt P05093); experiment: Inhibition of human CYP17 expressed in Escherichia coli coexpressing NADPH-P450 reductase
T2 sequence (P05093 whole entry): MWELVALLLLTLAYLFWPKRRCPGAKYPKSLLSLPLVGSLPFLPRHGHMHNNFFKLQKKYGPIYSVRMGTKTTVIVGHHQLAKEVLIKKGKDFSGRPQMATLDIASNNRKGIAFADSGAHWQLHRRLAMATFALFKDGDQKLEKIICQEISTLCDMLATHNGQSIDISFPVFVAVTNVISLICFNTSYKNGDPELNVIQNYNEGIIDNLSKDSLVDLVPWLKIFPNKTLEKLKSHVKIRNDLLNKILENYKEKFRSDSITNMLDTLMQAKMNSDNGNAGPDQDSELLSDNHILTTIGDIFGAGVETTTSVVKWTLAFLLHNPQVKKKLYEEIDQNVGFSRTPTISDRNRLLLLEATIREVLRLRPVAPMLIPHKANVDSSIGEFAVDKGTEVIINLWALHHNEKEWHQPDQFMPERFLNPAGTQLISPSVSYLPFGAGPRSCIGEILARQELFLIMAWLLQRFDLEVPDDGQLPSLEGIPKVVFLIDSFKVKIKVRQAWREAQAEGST

[3] = molecular target: T3, Cytochrome P450 11B2, mitochondrial (Homo sapiens, UniProt P19099); experiment: Inhibition of human CYP11B2 expressed in hamster V79MZh cells; assay type: cell-based
T3 sequence (P19099 whole entry): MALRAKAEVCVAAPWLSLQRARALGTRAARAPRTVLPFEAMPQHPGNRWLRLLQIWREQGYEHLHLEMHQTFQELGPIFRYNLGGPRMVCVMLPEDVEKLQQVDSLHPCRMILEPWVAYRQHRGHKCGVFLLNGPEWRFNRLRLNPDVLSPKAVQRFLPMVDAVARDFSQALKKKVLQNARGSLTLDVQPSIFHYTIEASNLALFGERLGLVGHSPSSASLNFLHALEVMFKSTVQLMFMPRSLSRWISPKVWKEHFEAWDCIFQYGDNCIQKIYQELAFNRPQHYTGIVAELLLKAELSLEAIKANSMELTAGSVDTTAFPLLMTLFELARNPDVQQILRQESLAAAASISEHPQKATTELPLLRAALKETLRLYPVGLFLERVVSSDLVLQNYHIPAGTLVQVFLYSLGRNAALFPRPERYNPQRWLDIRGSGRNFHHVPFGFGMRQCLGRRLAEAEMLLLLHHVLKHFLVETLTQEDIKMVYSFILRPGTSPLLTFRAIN

Aromatase = molecular target: T4, Aromatase (Homo sapiens, UniProt P11511); experiment: Inhibition of CYP19 in human placental microsomes; design: species or system Placenta
T4 sequence (P11511 whole entry): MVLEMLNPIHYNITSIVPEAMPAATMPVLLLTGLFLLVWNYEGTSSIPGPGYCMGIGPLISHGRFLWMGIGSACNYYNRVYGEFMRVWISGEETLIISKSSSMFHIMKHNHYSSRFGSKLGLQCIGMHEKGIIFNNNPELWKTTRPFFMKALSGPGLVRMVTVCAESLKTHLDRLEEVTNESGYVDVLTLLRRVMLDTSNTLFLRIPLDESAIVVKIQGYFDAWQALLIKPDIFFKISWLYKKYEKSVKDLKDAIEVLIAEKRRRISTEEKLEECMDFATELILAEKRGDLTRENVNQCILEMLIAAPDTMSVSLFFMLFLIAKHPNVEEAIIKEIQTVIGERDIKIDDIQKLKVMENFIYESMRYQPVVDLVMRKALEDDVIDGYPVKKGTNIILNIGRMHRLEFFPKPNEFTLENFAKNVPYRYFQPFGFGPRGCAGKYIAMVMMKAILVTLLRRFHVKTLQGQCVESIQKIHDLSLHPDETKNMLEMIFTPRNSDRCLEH

Cytochrome P450 3A4 = Cytochrome P450 3A4 (Homo sapiens, UniProt P08684); experiment: Inhibition of CYP3A4 expressed in baculovirus infected insect microsomes; design: species or system Microsome
Sequence of Cytochrome P450 3A4 (P08684 whole entry): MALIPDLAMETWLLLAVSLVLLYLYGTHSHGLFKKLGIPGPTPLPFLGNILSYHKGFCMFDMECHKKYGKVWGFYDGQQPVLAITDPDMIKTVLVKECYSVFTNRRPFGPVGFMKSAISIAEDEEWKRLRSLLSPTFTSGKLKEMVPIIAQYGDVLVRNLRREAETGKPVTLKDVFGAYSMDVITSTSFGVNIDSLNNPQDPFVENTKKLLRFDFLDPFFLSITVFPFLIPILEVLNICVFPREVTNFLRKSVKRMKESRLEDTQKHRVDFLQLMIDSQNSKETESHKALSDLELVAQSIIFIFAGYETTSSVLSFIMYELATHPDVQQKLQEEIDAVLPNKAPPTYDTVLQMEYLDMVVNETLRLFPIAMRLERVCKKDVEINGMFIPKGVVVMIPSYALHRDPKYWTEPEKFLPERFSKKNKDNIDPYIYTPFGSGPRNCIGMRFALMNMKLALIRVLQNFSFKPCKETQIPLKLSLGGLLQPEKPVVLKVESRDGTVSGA

Row | Structure (SMILES) | IC50 [1] | IC50 [2] | IC50 [3] | IC50 (Aromatase) | IC50 (Cytochrome P450 3A4)
1 | Nc1cccc(-c2ccc(Cc3ccncc3)cc2)c1 | 0.287 µM | 0.226 µM | 0.921 µM | 2.83 µM | –
2 | CC(C)C(c1ccncc1)c1ccc(-c2cccc(O)c2)cc1 (stereo unspecified) | – | 0.783 µM | – | – | –
3 | Oc1cccc(-c2ccc(Cc3ccncc3)cc2)c1 | 0.342 µM | – | 0.261 µM | 0.663 µM | 0.538 µM
4 | CCC(c1ccncc1)c1ccc(-c2ccc(O)c(F)c2)cc1 (stereo unspecified) | – | 0.343 µM | – | – | –
5 | Nc1ccc(-c2ccc(Cc3ccncc3)cc2)cc1N | 0.502 µM | 0.337 µM | 0.368 µM | 24.6 µM | –
6 | CC(C)=C(c1ccncc1)c1ccc(-c2cccc(NC(=O)OC(C)(C)C)c2)cc1 | – | 1.46 µM | – | – | –
7 | CC(C)=C(c1ccncc1)c1ccc(-c2ccc(NC(=O)OC(C)(C)C)cc2)cc1 | – | 0.493 µM | – | – | –
8 | CC(C)=C(c1ccncc1)c1ccc(-c2ccc(NC(=O)OC(C)(C)C)c(F)c2)cc1 | – | 0.852 µM | – | – | –
9 | CC(C)=C(c1ccncc1)c1ccc(-c2ccc(NC(=O)OC(C)(C)C)c(NC(=O)OC(C)(C)C)c2)cc1 | – | > 10 µM | – | – | –
10 | C[C@]12CC[C@H](O)CC1=CC[C@@H]1[C@@H]2CC[C@]2(C)C(c3cccnc3)=CC[C@@H]12 [ABIRATERONE] | 1.61 µM | – | 1.75 µM | > 50 µM | –

Continued, values first:

Row | IC50 [1] | IC50 [2] | IC50 [3] | IC50 (Aromatase) | IC50 (Cytochrome P450 3A4) | Structure (SMILES)
11 | 7.18 µM | 0.075 µM | 1.13 µM | 49.5 µM | 1.77 µM | CC(C)=C(c1ccncc1)c1ccc(-c2ccc(N)c(N)c2)cc1
12 | 1.4 µM | 0.052 µM | 0.948 µM | 2.44 µM | 7.58 µM | Oc1ccc(-c2ccc(Cc3ccncc3)cc2)cc1O
13 | 5.06 µM | 0.062 µM | 49.5 µM | 48.7 µM | – | CC(C)=C(c1ccncc1)c1ccc(-c2ccc3cc(O)ccc3c2)cc1
14 | 37.5 µM | 0.037 µM | 0.974 µM | 9.5 µM | 0.464 µM | CC(C)=C(c1ccncc1)c1ccc(-c2ccc(O)c(O)c2)cc1
15 | – | 0.189 µM | – | – | – | CCC(c1ccncc1)c1ccc(-c2cccc(O)c2)cc1 (stereo unspecified)
16 | 3.1 µM | 0.056 µM | 3.45 µM | 12 µM | 0.73 µM | CC(C)=C(c1ccncc1)c1ccc(-c2cccc(O)c2)cc1
17 | 0.351 µM | 0.186 µM | 0.11 µM | 1.67 µM | 0.896 µM | Oc1ccc(-c2ccc(Cc3ccncc3)cc2)cc1F
18 | 7.3 µM | 0.038 µM | 3.83 µM | 5.06 µM | 1.33 µM | CC(C)=C(c1ccncc1)c1ccc(-c2cccc(N)c2)cc1
19 | 2 µM | 0.075 µM | 1.87 µM | 5.75 µM | 17.6 µM | CC(C)=C(c1ccncc1)c1ccc(-c2ccc(O)c(F)c2)cc1
